What all share (experiment): cell-based
Common to all, as to parameters: NanoBRET live-cell target engagement; % occupancy from displacement of tracer K10 on NanoLuc-kinase fusions, mean n=3
Conditions in all cases: HEK293, read-out: % inhibition

The target of experiment [1] is MAST3 (Homo sapiens, UniProt O60307). The protocol:
(§1) • 18. Prepare 10× test compounds in OptiMEM • a. Dilute the test compound to 1000× in DMSO (or the test compound solvent). […] Add 10μL per well of 10× test compound or 10μL of the DMSO control to the 96-well plates containing cells with 1× tracer. Mix on orbital shaker for 15 s at 900 rpm. • 20. Incubate the plate at 37°C + 5% CO2 incubator for 2hr. Allow plate to cool to RT for ∼15 min, then proceed to NanoBRET^TM Assay section below. • 21. Immediately before the BRET measurements, prepare 3× Complete NanoBRET^TM Nano-Glo® Substrate in OptiMEM without serum or phenol red. […] Mix gently by inverting 5–10 times in a conical tube. (The final concentration of Extracellular NanoLuc inhibitor in the 3× solution is 60 μM, for a working concentration of 20 μM.) • a. Note: 3× solutions should be used within 1.5 h after preparation. • 22. […] Incubate 2–3 min at RT. Following addition of NanoBRET^TM Nano-Glo® Substrate, measure donor emission (e.g., 450 nm) and acceptor emission (e.g., 610 nm or 630 nm) using a NanoBRET™-compatible luminometer. Fractional occupancy Quantitation • 2. Determine Fractional Occupancy with the following equation; % Occupancy = [1 – (X – Z)/( Y – Z)]∗100 • Where: • X = BRET in the presence of the test compound and tracer, • Y = BRET in the presence of the 100% BRET Control (Tracer + DMSO) • Z = BRET for the Zero BRET Control, e.g., • a. BRET from the NanoLuc Control Vector • b. BRET from Kinase/NanoLuc fusion + saturating dose of control test compound.

Experiment [2] deals with MAPK4 (Homo sapiens, UniProt P31152). As to the method: as §1
Experiment [3] addresses FER (Homo sapiens, UniProt P16591). As to the method:
as §1

In experiment [4] the target is LRRK2 (Homo sapiens, UniProt Q5S007). As to the method: as §1
Experiment [5] concerns the target IRAK4 (Homo sapiens, UniProt Q9NWZ3). As to the method: as §1
Experiment [6] deals with SRMS (Homo sapiens, UniProt Q9H3Y6). As to the method: as §1
The target of experiment [7] is GAK (Homo sapiens, UniProt O14976). The protocol:
as §1

For experiment [8], the target named is CDKL5 (Homo sapiens, UniProt O76039). The protocol:
as §1

Experiment [9] has as its target CSNK2A1 (Homo sapiens, UniProt P68400). The protocol: as §1
The target of experiment [10] is BRSK2 (Homo sapiens, UniProt Q8IWQ3). As to the method:
as §1

Experiment [11] concerns the target MKNK2 (Homo sapiens, UniProt Q9HBH9). As to the method:
as §1

Experiment [12] has as its target PRKAA2 (Homo sapiens, UniProt P54646). The protocol: as §1
For experiment [13], the target named is FLT3 (Homo sapiens, UniProt P36888). The protocol: as §1
Experiment [14] deals with CAMK2A (Homo sapiens, UniProt Q9UQM7). The protocol: as §1
The target of experiment [15] is PRKACB (Homo sapiens, UniProt P22694). As to the method: as §1
Experiment [16] addresses PAK4 (Homo sapiens, UniProt O96013). As to the method:
as §1

Experiment [17] has as its target NEK9 (Homo sapiens, UniProt Q8TD19). As to the method: as §1
Experiment [18] addresses MAPK8 (Homo sapiens, UniProt P45983). The protocol:
as §1

FER, sequence (P16591 whole entry): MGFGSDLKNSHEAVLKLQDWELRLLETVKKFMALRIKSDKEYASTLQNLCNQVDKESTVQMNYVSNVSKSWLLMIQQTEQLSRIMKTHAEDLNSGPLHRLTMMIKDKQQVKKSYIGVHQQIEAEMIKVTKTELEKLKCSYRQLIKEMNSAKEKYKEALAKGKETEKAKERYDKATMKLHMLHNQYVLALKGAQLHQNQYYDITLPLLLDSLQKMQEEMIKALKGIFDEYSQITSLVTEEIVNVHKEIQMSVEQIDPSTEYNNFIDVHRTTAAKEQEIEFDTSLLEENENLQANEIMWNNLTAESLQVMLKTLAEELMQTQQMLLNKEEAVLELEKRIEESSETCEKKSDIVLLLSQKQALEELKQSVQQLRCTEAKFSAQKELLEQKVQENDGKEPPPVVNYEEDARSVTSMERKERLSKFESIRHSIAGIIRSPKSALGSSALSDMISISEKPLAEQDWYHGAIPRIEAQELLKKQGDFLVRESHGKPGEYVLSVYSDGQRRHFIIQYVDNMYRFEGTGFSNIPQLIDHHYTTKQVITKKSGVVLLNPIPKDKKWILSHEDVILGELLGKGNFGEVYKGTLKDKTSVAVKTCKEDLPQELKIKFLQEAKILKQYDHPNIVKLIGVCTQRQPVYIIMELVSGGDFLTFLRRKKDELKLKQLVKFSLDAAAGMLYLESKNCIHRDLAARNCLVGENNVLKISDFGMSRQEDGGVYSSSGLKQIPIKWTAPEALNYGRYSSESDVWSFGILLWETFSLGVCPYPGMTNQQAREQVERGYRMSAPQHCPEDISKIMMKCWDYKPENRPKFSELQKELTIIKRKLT
CSNK2A1, sequence (P68400 whole entry): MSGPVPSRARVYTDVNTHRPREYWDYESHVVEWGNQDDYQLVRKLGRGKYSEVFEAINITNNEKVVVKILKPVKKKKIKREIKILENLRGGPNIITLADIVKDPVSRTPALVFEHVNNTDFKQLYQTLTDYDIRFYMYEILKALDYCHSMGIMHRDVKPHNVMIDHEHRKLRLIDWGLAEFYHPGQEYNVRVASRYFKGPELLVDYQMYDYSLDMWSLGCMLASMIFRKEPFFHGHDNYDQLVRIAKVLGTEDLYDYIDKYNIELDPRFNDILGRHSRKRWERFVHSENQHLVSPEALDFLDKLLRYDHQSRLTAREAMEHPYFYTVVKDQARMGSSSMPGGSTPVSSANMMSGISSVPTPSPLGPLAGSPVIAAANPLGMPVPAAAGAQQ
NEK9, sequence (Q8TD19 whole entry): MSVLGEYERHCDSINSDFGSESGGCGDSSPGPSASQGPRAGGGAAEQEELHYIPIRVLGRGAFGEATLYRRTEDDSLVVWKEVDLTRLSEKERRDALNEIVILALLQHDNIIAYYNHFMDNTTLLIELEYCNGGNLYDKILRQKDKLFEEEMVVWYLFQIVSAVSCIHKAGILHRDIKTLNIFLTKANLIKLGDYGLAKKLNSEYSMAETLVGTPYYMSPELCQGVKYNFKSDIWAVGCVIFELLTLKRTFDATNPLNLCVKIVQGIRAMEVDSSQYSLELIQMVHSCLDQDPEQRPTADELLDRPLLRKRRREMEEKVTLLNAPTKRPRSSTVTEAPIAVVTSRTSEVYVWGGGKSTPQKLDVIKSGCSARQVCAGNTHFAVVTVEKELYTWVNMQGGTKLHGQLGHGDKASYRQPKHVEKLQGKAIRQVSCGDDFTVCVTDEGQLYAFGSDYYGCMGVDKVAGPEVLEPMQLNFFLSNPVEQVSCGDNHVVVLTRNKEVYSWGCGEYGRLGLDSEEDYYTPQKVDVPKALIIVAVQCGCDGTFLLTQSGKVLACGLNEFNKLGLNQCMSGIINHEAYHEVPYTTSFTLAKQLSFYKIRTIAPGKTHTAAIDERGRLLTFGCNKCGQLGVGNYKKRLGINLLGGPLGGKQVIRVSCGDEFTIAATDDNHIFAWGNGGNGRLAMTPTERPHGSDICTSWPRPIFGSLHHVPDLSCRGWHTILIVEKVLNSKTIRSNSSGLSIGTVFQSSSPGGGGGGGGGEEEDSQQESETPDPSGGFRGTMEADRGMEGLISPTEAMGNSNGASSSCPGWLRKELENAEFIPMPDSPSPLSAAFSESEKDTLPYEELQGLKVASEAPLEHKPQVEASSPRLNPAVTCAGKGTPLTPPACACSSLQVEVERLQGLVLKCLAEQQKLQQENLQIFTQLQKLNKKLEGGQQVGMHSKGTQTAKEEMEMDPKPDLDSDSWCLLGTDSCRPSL
SRMS, sequence (Q9H3Y6 whole entry): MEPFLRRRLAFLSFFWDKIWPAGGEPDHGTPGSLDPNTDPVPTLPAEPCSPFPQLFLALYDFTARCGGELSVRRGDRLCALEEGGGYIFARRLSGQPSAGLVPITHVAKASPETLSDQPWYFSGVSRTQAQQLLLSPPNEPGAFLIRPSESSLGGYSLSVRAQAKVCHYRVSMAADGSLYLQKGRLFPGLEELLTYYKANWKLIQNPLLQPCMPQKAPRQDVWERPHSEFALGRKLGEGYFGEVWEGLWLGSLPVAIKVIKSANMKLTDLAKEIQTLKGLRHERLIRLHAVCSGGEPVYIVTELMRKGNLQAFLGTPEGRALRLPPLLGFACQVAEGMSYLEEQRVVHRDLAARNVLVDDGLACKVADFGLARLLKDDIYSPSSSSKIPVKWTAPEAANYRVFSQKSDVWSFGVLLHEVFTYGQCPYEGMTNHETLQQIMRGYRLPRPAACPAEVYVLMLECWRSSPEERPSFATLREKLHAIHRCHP
PRKAA2, sequence (P54646 whole entry): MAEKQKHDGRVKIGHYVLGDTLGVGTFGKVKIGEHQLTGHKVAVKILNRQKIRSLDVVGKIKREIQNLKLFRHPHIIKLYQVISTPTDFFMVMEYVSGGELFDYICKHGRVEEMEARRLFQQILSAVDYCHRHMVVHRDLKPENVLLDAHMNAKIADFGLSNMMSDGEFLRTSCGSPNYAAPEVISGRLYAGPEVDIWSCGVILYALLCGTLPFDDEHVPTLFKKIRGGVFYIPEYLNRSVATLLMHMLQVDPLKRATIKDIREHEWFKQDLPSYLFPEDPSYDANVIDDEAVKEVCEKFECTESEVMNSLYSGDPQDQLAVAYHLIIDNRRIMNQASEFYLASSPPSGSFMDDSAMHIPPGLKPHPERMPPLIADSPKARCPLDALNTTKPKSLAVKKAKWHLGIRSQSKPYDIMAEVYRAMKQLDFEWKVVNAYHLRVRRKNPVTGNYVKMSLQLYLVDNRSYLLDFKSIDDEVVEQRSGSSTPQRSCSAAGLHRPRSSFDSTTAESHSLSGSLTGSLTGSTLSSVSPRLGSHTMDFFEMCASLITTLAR
MAST3, sequence (O60307 whole entry): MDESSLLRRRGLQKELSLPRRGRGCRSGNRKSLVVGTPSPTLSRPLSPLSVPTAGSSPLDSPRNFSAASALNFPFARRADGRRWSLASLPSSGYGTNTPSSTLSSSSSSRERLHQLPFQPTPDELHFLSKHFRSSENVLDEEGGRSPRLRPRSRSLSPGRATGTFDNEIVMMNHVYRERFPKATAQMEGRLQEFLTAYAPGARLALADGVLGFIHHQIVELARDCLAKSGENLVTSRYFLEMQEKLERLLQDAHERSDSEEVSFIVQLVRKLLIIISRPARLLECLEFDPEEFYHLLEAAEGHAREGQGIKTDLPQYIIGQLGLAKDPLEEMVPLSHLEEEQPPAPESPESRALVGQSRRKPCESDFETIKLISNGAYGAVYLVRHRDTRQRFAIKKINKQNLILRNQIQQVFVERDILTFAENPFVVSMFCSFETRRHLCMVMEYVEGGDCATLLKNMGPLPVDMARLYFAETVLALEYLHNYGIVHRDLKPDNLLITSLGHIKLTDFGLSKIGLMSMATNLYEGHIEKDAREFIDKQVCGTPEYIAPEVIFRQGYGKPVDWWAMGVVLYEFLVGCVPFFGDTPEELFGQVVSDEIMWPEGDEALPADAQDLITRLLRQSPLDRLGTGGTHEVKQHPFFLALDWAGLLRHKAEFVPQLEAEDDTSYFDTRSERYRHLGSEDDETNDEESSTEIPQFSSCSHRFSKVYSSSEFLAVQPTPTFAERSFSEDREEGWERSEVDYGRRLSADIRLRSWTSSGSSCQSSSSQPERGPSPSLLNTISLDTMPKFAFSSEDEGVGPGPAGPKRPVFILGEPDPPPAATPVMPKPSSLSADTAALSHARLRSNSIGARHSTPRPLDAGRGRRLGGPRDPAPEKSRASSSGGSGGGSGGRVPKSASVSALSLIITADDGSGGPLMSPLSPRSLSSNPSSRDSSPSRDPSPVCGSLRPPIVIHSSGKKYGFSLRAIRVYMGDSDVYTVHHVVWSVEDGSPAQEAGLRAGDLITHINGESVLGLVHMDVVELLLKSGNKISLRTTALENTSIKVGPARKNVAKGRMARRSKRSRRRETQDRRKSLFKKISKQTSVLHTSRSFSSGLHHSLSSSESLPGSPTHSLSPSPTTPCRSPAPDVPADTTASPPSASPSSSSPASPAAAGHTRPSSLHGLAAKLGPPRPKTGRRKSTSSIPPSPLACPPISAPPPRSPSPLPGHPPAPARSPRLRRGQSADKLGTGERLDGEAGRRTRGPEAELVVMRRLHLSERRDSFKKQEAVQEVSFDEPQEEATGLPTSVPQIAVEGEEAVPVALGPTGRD
MAPK8, sequence (P45983 whole entry): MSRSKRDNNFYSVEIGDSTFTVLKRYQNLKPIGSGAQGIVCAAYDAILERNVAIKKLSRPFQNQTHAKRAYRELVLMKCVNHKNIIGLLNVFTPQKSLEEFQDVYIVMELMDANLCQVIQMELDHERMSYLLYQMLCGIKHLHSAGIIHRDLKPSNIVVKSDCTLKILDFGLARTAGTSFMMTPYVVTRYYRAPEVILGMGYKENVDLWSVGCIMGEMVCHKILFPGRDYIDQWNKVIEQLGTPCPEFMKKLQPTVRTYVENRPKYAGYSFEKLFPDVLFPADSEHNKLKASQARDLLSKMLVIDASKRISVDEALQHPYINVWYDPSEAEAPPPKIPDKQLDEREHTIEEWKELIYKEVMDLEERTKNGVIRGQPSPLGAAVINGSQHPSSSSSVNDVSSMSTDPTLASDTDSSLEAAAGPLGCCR

For the compound `C[C@@H](Oc1cc(-c2cnn(C3CCNCC3)c2)cnc1N)c1c(Cl)ccc(F)c1Cl` [crizotinib], the inhibition at 1 µM in experiment [1] is -1%; in experiment [2], -12%; in [3], 16%; in [4], -9%; in [5] it was 6%; in experiment [6], 0%. In addition, the inhibition at 1 µM in [7] is -14%; in experiment [8], 4%; in experiment [9] it was 5%; in experiment [10], 3%; in experiment [11], 1%; in [12] it was -6%. For the same compound, the inhibition at 1 µM in experiment [13] is -4%; in [14], 3%; in experiment [15] it was 5%; in [16], 1%; in experiment [17] it was 1%; in experiment [18] it was -16%.

Source of the values: PMC8449129, “Single tracer-based protocol for broad-spectrum kinase profiling in live cells with NanoBRET” (STAR Protocols, 2021).
